Data published in article PMC12028158, “Synthesis and In Vitro Evaluation of the Anticancer Effect of Novel Phosphonium Vindoline Derivatives” (International Journal of Molecular Sciences, 2025).
Like-named read-outs stand apart in the source and are kept apart here.

Key:
Format in all cases: cell-based
[1] = system: PC-3; assay: NCI60 five-dose screen; conditions: Homo sapiens; PC-3, Prostate Cancer, five-dose; read-out: GI50
[2] = system: OVCAR-8; assay: NCI60 five-dose screen; conditions: Homo sapiens; OVCAR-8, Ovarian Cancer, five-dose; read-out: GI50
[3] = system: EKVX; assay: NCI60 one-dose screen; conditions: Homo sapiens, 10 μM, one-dose, read-out: Growth percent
[4] = system: LOX IMVI; assay: NCI60 one-dose screen; conditions: Homo sapiens, 10 μM, one-dose, read-out: Growth percent
[5] = system: UACC-62; assay: NCI60 one-dose screen; conditions: Homo sapiens; UACC-62, 10 μM, one-dose; read-out: Growth percent
[6] = system: CCRF-CEM; assay: NCI60 five-dose screen; conditions: Homo sapiens, Leukemia, five-dose, read-out: GI50
[7] = system: KM12; assay: NCI60 one-dose screen; conditions: Homo sapiens; KM12, 10 μM, one-dose; read-out: Growth percent
[8] = system: Ovarian Cancer panel; assay: NCI60 five-dose screen, panel mean; conditions: Homo sapiens; mean over Ovarian Cancer panel; read-out: Mean GI50
[9] = system: M14; assay: NCI60 five-dose screen; conditions: Homo sapiens; M14, Melanoma, five-dose; read-out: GI50
[10] = system: TK-10; assay: NCI60 five-dose screen; conditions: Homo sapiens; TK-10, Renal Cancer, five-dose; read-out: GI50
[11] = system: RPMI-8226; assay: NCI60 five-dose screen; conditions: Homo sapiens; RPMI-8226, Leukemia, five-dose; read-out: GI50
[12] = system: Renal Cancer panel; assay: NCI60 five-dose screen, panel mean; conditions: Homo sapiens; mean over Renal Cancer panel; read-out: Mean GI50
[13] = system: Non-small Cell Lung Cancer panel; assay: NCI60 five-dose screen, panel mean; conditions: Homo sapiens; mean over Non-small Cell Lung Cancer panel; read-out: Mean GI50
[14] = system: K-562; assay: NCI60 one-dose screen; conditions: Homo sapiens, K562; K-562, 10 μM, one-dose; read-out: Growth percent
[15] = system: NCI/ADR-RES; assay: NCI60 five-dose screen; conditions: Homo sapiens, Ovarian Cancer, five-dose, read-out: GI50
[16] = system: SNB-19; assay: NCI60 one-dose screen; conditions: Homo sapiens; SNB-19, 10 μM, one-dose; read-out: Growth percent
[17] = system: MALME-3M; assay: NCI60 five-dose screen; conditions: Homo sapiens; MALME-3M, Melanoma, five-dose; read-out: GI50
[18] = system: NCI-H522; assay: NCI60 one-dose screen; conditions: Homo sapiens; NCI-H522, 10 μM, one-dose; read-out: Growth percent
[19] = system: HCT-15; assay: NCI60 five-dose screen; conditions: Homo sapiens; HCT-15, Colon Cancer, five-dose; read-out: GI50
[20] = system: BT-549; assay: NCI60 five-dose screen; conditions: Homo sapiens; BT-549, Breast Cancer, five-dose; read-out: GI50
[21] = system: NCI-H23; assay: NCI60 one-dose screen; conditions: Homo sapiens; NCI-H23, 10 μM, one-dose; read-out: Growth percent
[22] = system: NCI-H460; assay: NCI60 one-dose screen; conditions: Homo sapiens; NCI-H460, 10 μM, one-dose; read-out: Growth percent
[23] = system: TK-10; assay: NCI60 one-dose screen; conditions: Homo sapiens; TK-10, 10 μM, one-dose; read-out: Growth percent
[24] = system: ACHN; assay: NCI60 five-dose screen; conditions: Homo sapiens, Renal Cancer, five-dose, read-out: GI50
[25] = system: Melanoma panel; assay: NCI60 five-dose screen, panel mean; conditions: Homo sapiens; mean over Melanoma panel; read-out: Mean GI50
[26] = system: MDA-MB-468; assay: NCI60 one-dose screen; conditions: Homo sapiens; MDA-MB-468, 10 μM, one-dose; read-out: Growth percent
[27] = system: SF-539; assay: NCI60 five-dose screen; conditions: Homo sapiens; SF-539, CNS Cancer, five-dose; read-out: GI50
[28] = system: NCI-H322M; assay: NCI60 one-dose screen; conditions: Homo sapiens, 10 μM, one-dose, read-out: Growth percent
[29] = system: OVCAR-3; assay: NCI60 one-dose screen; conditions: Homo sapiens; OVCAR-3, 10 μM, one-dose; read-out: Growth percent
[30] = system: U251; assay: NCI60 five-dose screen; conditions: Homo sapiens, read-out: GI50
[31] = system: 786-0; assay: NCI60 one-dose screen; conditions: Homo sapiens; 786-0, 10 μM, one-dose; read-out: Growth percent
[32] = system: 786-0; assay: NCI60 five-dose screen; conditions: Homo sapiens; 786-0, Renal Cancer, five-dose; read-out: GI50
[33] = system: HL-60(TB); assay: NCI60 five-dose screen; conditions: Homo sapiens, read-out: GI50
[34] = system: PC-3; assay: NCI60 one-dose screen; conditions: Homo sapiens; PC-3, 10 μM, one-dose; read-out: Growth percent
[35] = system: DU-145; assay: NCI60 one-dose screen; conditions: Homo sapiens; DU-145, 10 μM, one-dose; read-out: Growth percent
[36] = system: A549/ATCC; assay: NCI60 one-dose screen; conditions: Homo sapiens; A549/ATCC, 10 μM, one-dose; read-out: Growth percent
[37] = system: RXF 393; assay: NCI60 one-dose screen; conditions: Homo sapiens; RXF 393, 10 μM, one-dose; read-out: Growth percent
[38] = system: SN12C; assay: NCI60 one-dose screen; conditions: Homo sapiens, 10 μM, one-dose, read-out: Growth percent
[39] = system: MDA-MB-435; assay: NCI60 one-dose screen; conditions: Homo sapiens; MDA-MB-435, 10 μM, one-dose; read-out: Growth percent
[40] = system: MCF7; assay: NCI60 five-dose screen; conditions: Homo sapiens, read-out: GI50
[41] = system: COLO 205; assay: NCI60 one-dose screen; conditions: Homo sapiens; COLO 205, 10 μM, one-dose; read-out: Growth percent
[42] = system: SK-MEL-28; assay: NCI60 five-dose screen; conditions: Homo sapiens; SK-MEL-28, Melanoma, five-dose; read-out: GI50
[43] = system: OVCAR-4; assay: NCI60 five-dose screen; conditions: Homo sapiens; OVCAR-4, Ovarian Cancer, five-dose; read-out: GI50
[44] = system: SK-OV-3; assay: NCI60 one-dose screen; conditions: Homo sapiens; SK-OV-3, 10 μM, one-dose; read-out: Growth percent
[45] = system: OVCAR-5; assay: NCI60 five-dose screen; conditions: Homo sapiens; OVCAR-5, Ovarian Cancer, five-dose; read-out: GI50
[46] = system: MOLT-4; assay: NCI60 five-dose screen; conditions: Homo sapiens; MOLT-4, Leukemia, five-dose; read-out: GI50

CC[C@]12C=CCN3CC[C@@]4(c5ccc(OC)cc5N(C)[C@H]4[C@@](O)(C(=O)OC)[C@@H]1OC(=O)CCC[P+](c1cc(C)c(OC)c(C)c1)(c1cc(C)c(OC)c(C)c1)c1cc(C)c(OC)c(C)c1)[C@@H]32 [9e]
GI50 [1]: 192 nM
GI50 [2]: 300 nM
activity at 10 µM [3]: -98.2%
activity at 10 µM [4]: -96.8%
activity at 10 µM [5]: -97.7%
GI50 [6]: 114 nM
activity at 10 µM [7]: -95%
GI50 [8]: 940 nM
GI50 [9]: 299 nM
GI50 [10]: 277 nM
GI50 [11]: 20 nM
GI50 [12]: 440 nM
GI50 [13]: 230 nM
activity at 10 µM [14]: -97.5%
GI50 [15]: 5110 nM
activity at 10 µM [16]: -97.1%
GI50 [17]: 288 nM
activity at 10 µM [18]: -98.4%
GI50 [19]: 760 nM
GI50 [20]: 170 nM
activity at 10 µM [21]: -98.1%
activity at 10 µM [22]: -89.5%
activity at 10 µM [23]: -99.3%
GI50 [24]: 319 nM
GI50 [25]: 180 nM
activity at 10 µM [26]: -99.4%
GI50 [27]: 307 nM
activity at 10 µM [28]: -98.1%
activity at 10 µM [29]: -99%
GI50 ([30]; U-251, CNS cancer U251, text): < 100 nM
GI50 ([30]; U-251, U251, CNS Cancer, five-dose): 54 nM
activity at 10 µM [31]: -97.9%
GI50 [32]: 239 nM
GI50 ([33]; HL-60, HL-60(TB), Leukemia, five-dose): 39 nM
GI50 ([33]; HL-60, leukemia HL-60(TB)): < 100 nM
activity at 10 µM [34]: -97.7%
activity at 10 µM [35]: -96.8%
activity at 10 µM [36]: -92.9%
activity at 10 µM [37]: -98.6%
activity at 10 µM [38]: -96.7%
activity at 10 µM [39]: -98.2%
GI50 ([40]; MCF7, MCF7, Breast Cancer, five-dose): 44 nM
GI50 ([40]; MCF7, breast cancer MCF7, text): < 100 nM
activity at 10 µM [41]: -96.6%
GI50 [42]: 272 nM
GI50 [43]: 271 nM
activity at 10 µM [44]: -97.7%
GI50 [45]: 339 nM
GI50 [46]: 164 nM
